From US20240197596A1, “COMPOUNDS USEFUL AS HAIR DYES” (National University of Singapore, priority 2021, published 2024)
Values after ≈ are worked out from the molar mass of the structure shown. Values joined by “and” are separate entries in the source; they are usually repeats but may differ in a detail not shown here. Equal entries are not always repeated. “Also recorded” adds a separate entry of the source.

Key:
Hair nuance test = experiment: Hair nuance test; set-up: key to L* / a* / b*: CIELAB L*, a*, b* coordinates; key to ΔE (total colour difference to natural hair): ΔE = √((L*−L0)²+(a*−a0)²+(b*−b0)²) vs untreated hair; conditions: for eventual colour of bleached hair, Type A: Type A (Non-oxidative) formulation; for eventual colour of bleached hair, Type B: Type B (Oxidative, H2O2) formulation; for eventual colour of bleached hair, Type C: Type C (Oxidative with coupler resorcinol) formulation
Description: 35 g of bleaching powder was mixed with 50 mL of developer then applied onto undyed black hair (wrapped in aluminium foil to enhance the bleaching process) and left on for 45 min. The hair was then rinsed with deionized water and shampoo and left to dry. This process was repeated twice.
Hair dye formulations were prepared from N1-N13 according to methods reported (New Journal of Chemistry. 2019; 43(41):16188-99), and with the compositions stated in Table 11 Bleached hair samples were immersed into the respective formulations for 20 min, then air dried for 20 min. Then they were shampooed twice and treated with conditioner for 5 min.
SkinColorCatch (Delfin Technologies Ltd, Kuopio, Finland) was used to measure CIELAB tristimulus L*, a* and b* values of the dyed hair samples and baseline L0, a0, b0 values from untreated hair. The difference in colour tone (ΔH) and the total colour difference (ΔE) were then derived from the values obtained with the equations below:
ΔH=√{square root over ((a*−a0)^2+(b*−b0)^2)}
ΔE=√{square root over ((L*−L0)^2+(a*−a0)^2+(b*−b0)^2)}

[1] = Skin permeation study, Franz diffusion cell; type: in vitro ADME, porcine; conditions: for Cumulative amount comparison of PPD vs derivatives (times less than PPD) / Permeated through skin into receptor / Recovered in donor compartment / Recovered in skin / Recovered in skin outside diffusion area / Recovered in skin swabs / Recovered on parafilm and in washes / Cumulative amount at 8th hour: 8 h; for Permeated through skin into receptor / Recovered in donor compartment / Recovered in skin / Recovered in skin outside diffusion area / Recovered in skin swabs / Recovered on parafilm and in washes: mass balance; for recovery at 8 h, 1 % w/v: pig, end of 8 h, read-out: Total recovery (mean percentage parent compound recovery); for Cumulative amount at 8th hour: 1% w/v in deionized water
Description: In each Franz cell, a piece of pig ear skin prepared to a thickness of […] was clamped securely. 5 mL of PBS solution was added to the receiver compartment which was purged of air bubbles to ensure maximal contact of the skin piece with the solution. Donor solution was prepared by dissolving N1-N13 in deionized water at 1% w/v, and 900 μL was added to the donor compartment. The study was conducted for 8 h, and aliquots of 200 μL were removed from the receiver solution and topped up with fresh PBS at each timepoint of 15-minutes intervals for the first hour and every hour after that.
For mass balance, at the end of 8 h, skin pieces and swabs of the top and bottom surface of the skin were collected and stored in ACN for N1-N13 extraction. Donor solution and receiver solution were also collected.
The aliquot samples collected were subjected to 2-step extraction using 750 μL of dichloromethane (DCM). […] The solvent was dried using the TurboVap, and then reconstituted with 198 μL of 0.1% formic acid in 50% methanol in water and spiked with 2 μL of ANP (internal standard). The processed aliquot samples and mass balance samples were then sent for analysis using LC-MS/MS. The compounds' steady state fluxes and permeability coefficients were then calculated by fitting the solution to Fick's […] of diffusion at the steady state (linear part) of each experimental cumulative amount curve.

THP-1 cells = experiment: MTT assay on THP-1 cells (CV75); type: cell-based, human; conditions: THP-1 cells, 24 h
Description: THP-1 (human acute monocytic leukaemia cell line) cell suspension was adjusted to 1×10^5 cells per well and seeded in 96-well plates. The plate was incubated at 37° C. with 5% CO2. After 24 h, 10 mM stock solutions of N1-N13 were prepared in autoclaved milli-Q water. A series of concentrations diluted in media was prepared and added to the wells. Each concentration was performed in 6-replicates, and seeded wells with only media and no compound were used as controls while wells with only media were used as blanks. The plate was incubated for 24 h, after which 100 μL of MTT reagent was added and the plate was further incubated for 3 h before adding 100 μL of DMSO. Subsequently, the plate was shaken for 20 min, and then absorbance at 570 nm was determined using a Bio-Tek plate reader. Percentage cell viability was calculated and CV75 values were determined.

[2] = Thermodynamic solubility assay (modified shake flask, LC-MS/MS); conditions: Milli-Q water, pH=7, 25° C., 24 h, 3 separate determinations; for solubility at 24 h: 25 °C, pH 7, water, thermodynamic from solid
Description: The aqueous solubilities (pH=7) of these compounds were measured using the modified shake flask method and LC-MS/MS. Each hair dye was added into a 2 mL glass vial containing Milli-Q water (1 mL) to form the precipitates at 25° C. Then the mixture was subjected to a solubility-equilibrium stage. The vials were shaken at 300 rpm at 25° C. for 24 h. The precipitate was separated by centrifugation at 23,000 g for 20 min. Subsequently, 0.5 mL of supernatant was transferred into a 1 mL Eppendorf tube, and it was centrifuged again as mentioned above. The supernatant was then used for LC-MS/MS analysis.
The mass spectrometric analysis was performed by use of a AB SCIEX QTRAP 5500 tandem mass spectrometry (MS/MS) system (AB SCIEX, Framingham, MA, USA) operating in triple quadrupole positive mode (ESI+) equipped with an AB Sciex Turbo Ion Spray interface. Acquisition and analysis of data were performed with Analyst software ver. 1.4.2 (Applied Biosystems) which performed all chromatographic peak integration. For each hair dye, a standard curve consisting of four concentrations was established.
Solvent A was composed of 0.1% [v/v] formic acid in Milli-Q water while solvent B was composed of 0.1% [v/v] formic acid in acetonitrile. A mobile phase gradient pumped at 0.6 mL/min was used to elute the hair dyes from the column. The column was equilibrated for 1 min resulting in a total run time of 5 min. The injection volume was 5.0 μL for all derivatives. To prevent compound accumulation on the needle, 50% methanol in ACN was used as needle wash for 30 s per sample.

[3] = Type C (Oxidative with coupler resorcinol)

SMILES	L* (Hair nuance test; Type A (Non-oxidative))	a* (Hair nuance test; Type A (Non-oxidative))	b* (Hair nuance test; Type A (Non-oxidative))	ΔE (total colour difference to natural hair) (Hair nuance test; Type A (Non-oxidative))	ΔH (difference in colour tone) (Hair nuance test; Type A (Non-oxidative))	L* (Hair nuance test; Type B (Oxidative))	a* (Hair nuance test; Type B (Oxidative))	b* (Hair nuance test; Type B (Oxidative))	ΔE (total colour difference to natural hair) (Hair nuance test; Type B (Oxidative))	ΔH (difference in colour tone) (Hair nuance test; Type B (Oxidative))	L* (Hair nuance test; [3])	a* (Hair nuance test; [3])	b* (Hair nuance test; [3])	ΔE (total colour difference to natural hair) (Hair nuance test; [3])	ΔH (difference in colour tone) (Hair nuance test; [3])	eventual colour of bleached hair, Type C (Hair nuance test)	Permeated through skin into receptor [1]	Recovered in donor compartment [1]	Recovered in skin [1]	Recovered in skin outside diffusion area [1]	further results
Nc1ccc(N)c(OCCO)c1 [Compound N9, 2-(2,5-diaminophenoxy)ethan-1-ol]	23	8	10	18.46	4.29	32	0	4	23.19	4.81	29	19	19	32.93	5.73	vibrant blue colours and Blue	<0.001 % of applied compound dose	94.5 % of applied compound dose	0.05 % of applied compound dose	0.0022 % of applied compound dose	eventual colour of bleached hair, Type A (Hair nuance test): brown colour; eventual colour of bleached hair, Type B (Hair nuance test): brown colour; Cumulative amount comparison of PPD vs derivatives (times less than PPD) [1]: 445; Recovered in skin swabs [1]: 0.03 % of applied compound dose; Recovered on parafilm and in washes [1]: 0.003 % of applied compound dose; recovery at 8 h, 1 % w/v [1]: 94.6 ± 1.5%; CV75 (concentration affording 75% cell viability), 1 × CV75 (THP-1 cells): 126 µg/mL; solubility at 24 h [2]: 65 to 72 mg/mL (≈ 386 to 428 mM); Solubility [2]: 72 + 3.4 mg/ml
CNCCOc1cc(N)ccc1N [Compound N13, 2-(2-(methylamino)ethoxy)benzene-1,4-diamine]	24	8	8	18.38	4.28	36	11	18	33.74	5.8	25	14	11	23.49	4.84	Brown	<0.001 % of applied compound dose	93.0 % of applied compound dose	0.03 % of applied compound dose	0.003 % of applied compound dose	eventual colour of bleached hair, Type B (Hair nuance test): Grey; Cumulative amount at 8th hour [1]: 0.0106 μg/cm^2; Recovered in skin swabs [1]: 0.02 % of applied compound dose; Recovered on parafilm and in washes [1]: 0.003 % of applied compound dose; recovery at 8 h, 1 % w/v [1]: 93.1 ± 1.2%; CV75 (concentration affording 75% cell viability), 1 × CV75 (THP-1 cells): 54.3 µg/mL; solubility at 24 h [2]: 38 mg/mL (≈ 210 mM)
COCCOc1cc(N)ccc1N [Compound N7, 2-(2-methoxyethoxy)benzene-1,4-diamine]	22	2.7	4.7	13.8	4.6	19	4.7	3	11.2	5.1	12.3	−0.7	−4	6.0	5.0	vibrant blue colours; also recorded: Navy blue	<0.001 % of applied compound dose	97.5 % of applied compound dose	0.03 % of applied compound dose	0.007 % of applied compound dose	eventual colour of bleached hair, Type A (Hair nuance test): dark brown colour shade; also recorded: Dark hazelnut; eventual colour of bleached hair, Type B (Hair nuance test): Walnut brown; Cumulative amount at 8th hour [1]: 0.0080 μg/cm^2 and 0.008 μg/cm^2; Cumulative amount comparison of PPD vs derivatives (times less than PPD) [1]: 675.0; Recovered in skin swabs [1]: 0.09 % of applied compound dose; Recovered on parafilm and in washes [1]: 0.001 % of applied compound dose; recovery at 8 h, 1 % w/v [1]: 97 ± 1.49%; CV75 (concentration affording 75% cell viability), 1 × CV75 (THP-1 cells): 44.6 µg/mL; solubility at 24 h [2]: 65 to 72 mg/mL (≈ 357 to 395 mM); Solubility [2]: 62 mg/mL (≈ 340 mM)
COCOc1cc(N)ccc1N [Compound N2, 2-(methoxymethoxy)benzene-1,4-diamine]	11	1	−2	3.7	3.16	9	0	−1	2.0	2.0	21	17	6	21.4	17.7	Black	<0.001 % of applied compound dose	98.2 % of applied compound dose	0.04 % of applied compound dose	0.0024 % of applied compound dose	eventual colour of bleached hair, Type A (Hair nuance test): Walnut brown; Cumulative amount comparison of PPD vs derivatives (times less than PPD) [1]: 453.7; Recovered in skin swabs [1]: 0.05 % of applied compound dose; Recovered on parafilm and in washes [1]: 0.004 % of applied compound dose; recovery at 8 h, 1 % w/v [1]: 98 ± 1.33%; CV75 (concentration affording 75% cell viability), 1 × CV75 (THP-1 cells): 72.4 µg/mL; solubility at 24 h [2]: 78 to 100 mg/mL (≈ 464 to 595 mM); Solubility [2]: 90 + 2.6 mg/ml
